Measured values reported in patent publication US20260364080A1, “PYRAZOLO-PYRIMIDINONE COMPOUNDS FOR USE IN METHODS OF INHIBITING WEE1 A KINASE” (Acrivon Therapeutics, Inc., priority 2023, published 2026).

Columns and labels:
[1] = target: T1, Myt1 kinase (recombinant PMYT-1) (Homo sapiens, UniProt Q99640); assay: Myt1 kinase binding assay (LanthaScreen Eu Kinase Binding Assay); conditions: 3 nM tracer 178, 2.5 nM PMYT-1, 1 nM Eu-labeled antibody; read-out: Myt1 kinase Binding IC50
T1 construct: full length PMYT-1 was expressed by baculovirus in insect cells; purchased Invitrogen A30984; host or cells: insect cells (baculovirus)
T1 sequence (Q99640 1-499): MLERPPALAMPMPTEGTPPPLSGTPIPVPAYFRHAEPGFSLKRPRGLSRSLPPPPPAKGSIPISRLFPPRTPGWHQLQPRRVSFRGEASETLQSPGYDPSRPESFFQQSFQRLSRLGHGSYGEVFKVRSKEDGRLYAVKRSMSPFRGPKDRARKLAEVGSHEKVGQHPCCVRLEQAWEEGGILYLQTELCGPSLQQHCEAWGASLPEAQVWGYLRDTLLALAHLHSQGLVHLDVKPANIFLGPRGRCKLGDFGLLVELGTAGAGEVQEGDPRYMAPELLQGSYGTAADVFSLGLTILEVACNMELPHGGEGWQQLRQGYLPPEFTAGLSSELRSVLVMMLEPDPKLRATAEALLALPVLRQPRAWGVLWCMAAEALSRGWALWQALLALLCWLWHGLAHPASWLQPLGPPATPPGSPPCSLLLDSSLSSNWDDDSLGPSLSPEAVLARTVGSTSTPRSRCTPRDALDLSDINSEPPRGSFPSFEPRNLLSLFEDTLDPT
How it was run: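 The binding affinity of compounds for Myt1 kinase was measured with a LanthaScreen Europium (Eu) Kinase Binding Assay, a time-resolved FRET format in which test compounds compete against a labeled kinase tracer, and the results were expressed as IC50 values describing compound binding to Myt1.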

[2] = target: T2, Myt1 kinase (CDK1 Thr14 phosphorylation in ACHN renal cell carcinoma cells) (Homo sapiens, UniProt Q99640); assay: AlphaLISA assay, Myt1 kinase target engagement (phospho-CDK1 Thr14) in ACHN cells; assay type: cell-based; conditions: ACHN cells (marked *); 4 h treatment
T2 construct: pCDK1 Thr14 AlphaLISA read-out
T2 sequence (Q99640 1-499): T1 sequence (Q99640 1-499)
Description: (§1) Each of an ACHN renal cell carcinoma cell line (ATCC) and a DAOY medulloblastoma cell line, and an A427 lung cancer line were cultured in Minimum Essential Medium Eagle supplemented with 10% fetal calf serum (Sigma), 1% Penicillin-Streptomycin and 10 mM HEPES buffer (HyClone). Cell cultures were kept in a humidified incubator at 37 °C and 5% CO2. Cells were routinely tested for Mycoplasma contamination.
(§2) For target engagement assessment of Myt1 kinase inhibition, quantification of Cdk1 phosphorylated on threonine 14 was detected using the AlphaLISA® SureFire® Ultra™ Human Phospho-CDK1 (Thr14) assay (Perkin Elmer). DAOY or ACHN cells were seeded into tissue culture treated 96-well plates (VWR) to a density of 10,000 or 20,000 cells per well respectively. 24 h post seeding cells were treated for 4 h with compounds at concentrations ranging from 7 to 5000 nM. Cells were washed with PBS and lysed in 50 μl AlphaLISA lysis buffer before freezing at −80 C. Ten ul of the lysate was transferred to 384 well plates and incubated with AlphaLISA donor and acceptor beads according to the manufacturer's instructions. Dose response curves and EC50 values were calculated and visualized using GraphPad Prism version 9. Target engagement for Myt1 kinase can also be measured using the same AlphaLISA assay in OVCAR3 cells, an ovarian cancer cell line. NIH:OVCAR-3 (OVCAR3) cells are cultured in RPMI-1640 medium supplemented with 0.01 mg/ml insulin, 20% FBS, 1% Penicillin-Streptomycin and 10 mM HEPES buffer. 14,000 cells per well are seeded into 96 well tissue culture plates in full medium. Twenty-four hours post seeding, cells are treated with compound for 4 hours at concentrations ranging from 0.017 nM to 1000 nM.

[3] = target: T3, Wee1A kinase (CDK1 Tyr15 phosphorylation in ACHN renal cell carcinoma cells) (Homo sapiens, UniProt P30291); assay: High-content imaging of pCdk1 Y15, Wee1A kinase target engagement in ACHN cells; assay type: cell-based; conditions: 4 h treatment, nuclear positivity for pCdk1 Y15 vs DMSO control, read-out: CDK1 Tyr15 Phosphorylation EC50
T3 construct: pCDK1 Tyr15 immunofluorescence read-out
T3 sequence (P30291 whole entry): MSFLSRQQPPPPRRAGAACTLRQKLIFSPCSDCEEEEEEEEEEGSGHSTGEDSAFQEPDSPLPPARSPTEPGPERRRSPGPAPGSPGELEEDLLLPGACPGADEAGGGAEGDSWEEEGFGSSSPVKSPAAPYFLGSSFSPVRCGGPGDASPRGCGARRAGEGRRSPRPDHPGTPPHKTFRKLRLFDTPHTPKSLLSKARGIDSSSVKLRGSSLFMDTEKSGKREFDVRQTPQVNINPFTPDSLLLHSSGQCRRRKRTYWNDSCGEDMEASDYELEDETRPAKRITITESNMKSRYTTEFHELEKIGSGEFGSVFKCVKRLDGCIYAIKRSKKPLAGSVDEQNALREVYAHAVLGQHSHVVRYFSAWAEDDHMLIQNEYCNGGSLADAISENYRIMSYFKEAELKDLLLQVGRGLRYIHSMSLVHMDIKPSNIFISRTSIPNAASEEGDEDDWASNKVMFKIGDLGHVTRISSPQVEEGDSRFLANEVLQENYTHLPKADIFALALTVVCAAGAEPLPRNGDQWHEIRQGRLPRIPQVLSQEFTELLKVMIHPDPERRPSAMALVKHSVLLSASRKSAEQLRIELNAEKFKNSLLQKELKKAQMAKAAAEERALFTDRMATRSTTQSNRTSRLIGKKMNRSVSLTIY
How it was run: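 ACHN cells exposed to compound for 4 h over 7–5,000 nM or 0.3–200 nM, then fixed and immunostained for pCDK1 Y15 with DAPI nuclear counterstain. The percentage of pCdk1 Y15 nucleus-positive cells relative to DMSO control was imaged per well; EC50 from dose-response curves.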

[4] = target: T4, recombinant human Wee1A kinase (Homo sapiens, UniProt P30291); assay: Wee1A kinase binding assay (LanthaScreen Eu time-resolved FRET); conditions: 30 nM tracer 178, 5 nM Wee1A kinase, 2 nM Eu-labeled antibody; 60 minutes at room temperature; read-out: Wee1A kinase Binding IC50
T4 construct: full length Wee1 kinase was expressed by baculovirus in insect cells; purchased Invitrogen PV3817; host or cells: insect cells (baculovirus)
T4 sequence (P30291 whole entry): as above
How it was run: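 Full-length, baculovirus-expressed GST-tagged Wee1A (5 nM) was mixed with 2 nM Eu-anti-GST antibody, 30 nM kinase tracer 178 and compound (1% DMSO). Buffer was 50 mM HEPES pH 7.5, 10 mM MgCl2, 1 mM EGTA, 0.01% Brij-35, incubated 60 min at room temperature. TR-FRET 665/615 nm emission ratios from duplicates were curve-fitted.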

[5] = target: T5, Myt1 kinase (CDK1 Thr14 phosphorylation in DAOY medulloblastoma cells) (Homo sapiens, UniProt Q99640); assay: AlphaLISA assay, Myt1 kinase target engagement (phospho-CDK1 Thr14) in DAOY cells; assay type: cell-based; conditions: 4 h treatment, read-out: CDK1 Thr14 Phosphorylation EC50
T5 construct: pCDK1 Thr14 AlphaLISA read-out
T5 sequence (Q99640 1-499): T1 sequence (Q99640 1-499)
Description: as §1, §2

ACHN cells = assay: Cell Titer Glo viability assay, ACHN cells; assay type: cell-based; conditions: Homo sapiens, 144 h, absolute EC50
How it was run: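 Cells grown in MEM with 10% FCS were seeded at 500 (A427), 400 (ACHN) or 250 (DAOY) per well and treated the next day with compound at 17 to 10 000 nM. Viability relative to untreated control was read at 144 h by CellTiter-Glo 2.0.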

| SMILES | IC50 [1] [nM] | EC50 [2] [nM] | EC50 [3] [nM] | IC50 [4] [nM] | EC50 [5] [nM] | EC50 (ACHN cells) [nM] |
| --- | --- | --- | --- | --- | --- | --- |
| C=CCn1c(=O)c2cnc(Nc3ccc4nn(C(C)(C)C)cc4c3)nc2n1-c1cccc(OC2CCNCC2)n1 [Compound 395, 2-allyl-6-((2-(tert-butyl)-2H-indazol-5-yl)amino)-1-(6-(piperidin-4-yloxy)pyridin-2-yl)-1,2-dihydro-3H-pyrazolo[3,4-d]pyrimidin-3-one] | < 20 | > 1000 | < 100 | < 10 | – | – |
| C=CCn1c(=O)c2cnc(Nc3ccc4nn(C)cc4c3)nc2n1-c1cccc(OC2CCN(C)CC2)n1 [Compound 273, 2-allyl-6-((2-methyl-2H-indazol-5-yl)amino)-1-(6-((1-methylpiperidin-4-yl)oxy)pyridin-2-yl)-1,2-dihydro-3H-pyrazolo[3,4-d]pyrimidin-3-one] | < 20 | – | < 100 | < 10 | < 200 | ≤ 100 |
| C=CCn1c(=O)c2cnc(Nc3ccc4c(cnn4C)c3)nc2n1-c1cccc(O[C@H]2CCN(C)C2)n1 [Compound 105, 1-{6-[(S)-1-methyl-3-pyrrolidinyloxy]-2-pyridyl}-2-allyl-6-(1-methyl-1H-indazol-5-ylamino)-1,2-dihydro-3H-1,2,5,7-tetraazainden-3-one] | 20 to 100 | – | < 100 | < 10 | 500 to 1000 | ≤ 100 |
| C=CCn1c(=O)c2cnc(Nc3ccc(Cl)cc3)nc2n1-c1cccc(NC2CCN(C)CC2)n1 [Compound 138, 2-allyl-6-((4-chlorophenyl)amino)-1-(6-((1-methylpiperidin-4-yl)amino)pyridin-2-yl)-1,2-dihydro-3H-pyrazolo[3,4-d]pyrimidin-3-one] | 100 to 500 | – | < 100 | < 10 | > 1000 | ≤ 100 |
| C=CCn1c(=O)c2cnc(Nc3cnn(CC(C)C)c3)nc2n1-c1cccc(OC2CCN(C)CC2)n1 [Compound 200, 2-allyl-6-(1-isobutyl-4-pyrazolylamino)-1-[6-(1-methyl-4-piperidyloxy)-2-pyridyl]-1,2-dihydro-3H-1,2,5,7-tetraazainden-3-one] | 100 to 500 | – | < 100 | < 10 | > 1000 | ≤ 100 |
| C=CCn1c(=O)c2cnc(Nc3cnn(C(C)C)c3)nc2n1-c1cccc(OC2CCN(C)CC2)n1 [Compound 198, 2-allyl-6-(1-isopropyl-4-pyrazolylamino)-1-[6-(1-methyl-4-piperidyloxy)-2-pyridyl]-1,2-dihydro-3H-1,2,5,7-tetraazainden-3-one] | 100 to 500 | – | < 100 | < 10 | > 1000 | ≤ 100 |
| [2H]C([2H])([2H])N1CCC(Oc2nccc(-n3c4nc(Nc5ccc6c(cnn6C)c5)ncc4c(=O)n3CC=C)n2)CC1 [Compound 383, 2-allyl-6-(1-methyl-1H-indazol-5-ylamino)-1-(2-{1-[(^2H3)methyl]-4-piperidyloxy}-4-pyrimidinyl)-1,2-dihydro-3H-1,2,5,7-tetraazainden-3-one] | 20 to 100 | 500 to 1000 | – | < 10 | – | – |
| C=CCn1c(=O)c2cnc(Nc3ccc(OCC(C)C)cc3)nc2n1-c1cccc(OC2CCN(C)CC2)n1 [Compound 257, 2-allyl-6-((4-isobutoxyphenyl)amino)-1-(6-((1-methylpiperidin-4-yl)oxy)pyridin-2-yl)-1,2-dihydro-3H-pyrazolo[3,4-d]pyrimidin-3-one] | < 20 | – | < 100 | < 10 | 500 to 1000 | ≤ 100 |
| C=CCn1c(=O)c2cnc(Nc3ccc(C#N)c(C)c3)nc2n1-c1cccc(OC2CCNCC2)n1 [Compound 293, 5-{2-allyl-3-oxo-1-[6-(4-piperidyloxy)-2-pyridyl]-1,2-dihydro-3H-1,2,5,7-tetraazainden-6-ylamino}-2-toluonitrile] | 20 to 100 | – | < 100 | < 10 | 200 to 500 | 100 to 500 |

Second part, the molecule after the results:

| IC50 [1] [nM] | EC50 [2] [nM] | EC50 [3] [nM] | IC50 [4] [nM] | EC50 [5] [nM] | EC50 (ACHN cells) [nM] | SMILES |
| --- | --- | --- | --- | --- | --- | --- |
| < 20 | < 200 | < 100 | < 10 | – | – | C=CCn1c(=O)c2cnc(Nc3cnc4c(cnn4C(C)C)c3)nc2n1-c1cccc(OC2CCN(C)CC2)n1 [Compound 406, 2-allyl-6-((1-isopropyl-1H-pyrazolo[3,4-b]pyridin-5-yl)amino)-1-(6-((1-methylpiperidin-4-yl)oxy)pyridin-2-yl)-1,2-dihydro-3H-pyrazolo[3,4-d]pyrimidin-3-one] |
| < 20 | – | < 100 | < 10 | 200 to 500 | ≤ 100 | C=CCn1c(=O)c2cnc(Nc3ccc(OCC4CC4)cc3)nc2n1-c1cccc(OC2CCNCC2)n1 [Compound 259, 2-allyl-6-((4-(cyclopropylmethoxy)phenyl)amino)-1-(6-(piperidin-4-yloxy)pyridin-2-yl)-1,2-dihydro-3H-pyrazolo[3,4-d]pyrimidin-3-one] |
| < 20 | – | < 100 | < 10 | 200 to 500 | ≤ 100 | C=CCn1c(=O)c2cnc(Nc3ccc4nsnc4c3)nc2n1-c1cccc(OC2CCN(C)CC2)n1 [Compound 208, 2-allyl-6-(2,1,3-benzothiadiazol-5-ylamino)-1-[6-(1-methyl-4-piperidyloxy)-2-pyridyl]-1,2-dihydro-3H-1,2,5,7-tetraazainden-3-one] |
| < 20 | – | < 100 | < 10 | 200 to 500 | ≤ 100 | C=CCn1c(=O)c2cnc(Nc3ccc4nc(C)sc4c3)nc2n1-c1cccc(OC2CCN(C)CC2)n1 [Compound 260, 2-allyl-6-(2-methyl-1,3-benzothiazol-6-ylamino)-1-[6-(1-methyl-4-piperidyloxy)-2-pyridyl]-1,2-dihydro-3H-1,2,5,7-tetraazainden-3-one] |
| 20 to 100 | – | < 100 | < 10 | 200 to 500 | ≤ 100 | C=CCn1c(=O)c2cnc(Nc3ccc(OC)nc3)nc2n1-c1cccc(OC2CCN(C)CC2)n1 [Compound 250, 2-allyl-6-(6-methoxy-3-pyridylamino)-1-[6-(1-methyl-4-piperidyloxy)-2-pyridyl]-1,2-dihydro-3H-1,2,5,7-tetraazainden-3-one] |
